Tests used:
fibroblasts = fibroblasts treated with KD025; cited from earlier work
[1] = test system: murine autoimmune disease; settings: cited from earlier work
[2] = 12-16 weeks of dosing in healthy volunteers and patients; cited from earlier work
ROCK1 = target: T1, ROCK1 (Homo sapiens, UniProt Q13464); assay: ROCK1 kinase binding affinity, DiscoverX KINOMEscan KdELECT; settings: equilibrium dissociation constant, 11-point 3-fold dilution series
T1 construct: purchased DiscoverX (KINOMEscan KdELECT service); host or cells: E. coli BL21-derived (T7 phage) or HEK-293

ROCK2 = target: T2, ROCK2 (Homo sapiens, UniProt O75116); assay: ROCK2 kinase binding affinity, DiscoverX KINOMEscan KdELECT
T2 construct: purchased DiscoverX (KINOMEscan KdELECT service); host or cells: E. coli BL21-derived (T7 phage) or HEK-293
T2 sequence (O75116 whole entry): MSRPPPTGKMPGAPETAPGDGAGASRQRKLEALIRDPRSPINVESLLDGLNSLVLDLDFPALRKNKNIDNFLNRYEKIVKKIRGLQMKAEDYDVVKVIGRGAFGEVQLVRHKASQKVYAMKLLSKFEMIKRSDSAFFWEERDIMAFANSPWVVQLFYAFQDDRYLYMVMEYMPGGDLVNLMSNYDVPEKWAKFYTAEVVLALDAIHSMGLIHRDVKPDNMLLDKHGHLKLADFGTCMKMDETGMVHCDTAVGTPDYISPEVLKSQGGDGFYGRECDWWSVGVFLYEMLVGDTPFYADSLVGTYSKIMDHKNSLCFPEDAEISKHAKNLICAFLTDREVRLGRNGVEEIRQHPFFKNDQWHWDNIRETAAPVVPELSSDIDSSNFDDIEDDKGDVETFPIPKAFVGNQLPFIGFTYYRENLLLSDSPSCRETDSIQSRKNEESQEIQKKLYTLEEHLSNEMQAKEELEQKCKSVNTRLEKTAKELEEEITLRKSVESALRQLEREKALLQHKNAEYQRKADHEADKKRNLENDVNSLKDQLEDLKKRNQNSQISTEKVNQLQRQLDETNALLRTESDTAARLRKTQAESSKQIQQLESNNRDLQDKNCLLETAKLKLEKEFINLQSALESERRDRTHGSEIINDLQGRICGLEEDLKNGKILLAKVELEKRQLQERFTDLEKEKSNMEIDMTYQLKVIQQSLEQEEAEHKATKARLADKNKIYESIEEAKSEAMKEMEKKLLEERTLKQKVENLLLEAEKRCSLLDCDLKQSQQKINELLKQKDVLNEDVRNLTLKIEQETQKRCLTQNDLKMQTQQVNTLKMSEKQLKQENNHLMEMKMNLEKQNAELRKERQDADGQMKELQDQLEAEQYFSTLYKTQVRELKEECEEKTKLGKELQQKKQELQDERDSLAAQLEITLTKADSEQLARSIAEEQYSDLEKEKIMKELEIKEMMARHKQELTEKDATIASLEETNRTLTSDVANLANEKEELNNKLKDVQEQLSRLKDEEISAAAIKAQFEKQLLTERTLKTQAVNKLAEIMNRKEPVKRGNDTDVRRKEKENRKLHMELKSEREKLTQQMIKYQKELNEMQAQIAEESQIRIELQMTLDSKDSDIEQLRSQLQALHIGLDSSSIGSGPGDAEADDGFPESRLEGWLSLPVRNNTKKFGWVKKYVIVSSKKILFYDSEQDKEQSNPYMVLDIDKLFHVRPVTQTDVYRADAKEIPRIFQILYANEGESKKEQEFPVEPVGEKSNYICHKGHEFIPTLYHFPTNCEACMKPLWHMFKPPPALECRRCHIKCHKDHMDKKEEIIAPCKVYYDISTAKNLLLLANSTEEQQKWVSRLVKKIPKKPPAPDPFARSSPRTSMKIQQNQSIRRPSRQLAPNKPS

T1 sequence (Q13464 whole entry): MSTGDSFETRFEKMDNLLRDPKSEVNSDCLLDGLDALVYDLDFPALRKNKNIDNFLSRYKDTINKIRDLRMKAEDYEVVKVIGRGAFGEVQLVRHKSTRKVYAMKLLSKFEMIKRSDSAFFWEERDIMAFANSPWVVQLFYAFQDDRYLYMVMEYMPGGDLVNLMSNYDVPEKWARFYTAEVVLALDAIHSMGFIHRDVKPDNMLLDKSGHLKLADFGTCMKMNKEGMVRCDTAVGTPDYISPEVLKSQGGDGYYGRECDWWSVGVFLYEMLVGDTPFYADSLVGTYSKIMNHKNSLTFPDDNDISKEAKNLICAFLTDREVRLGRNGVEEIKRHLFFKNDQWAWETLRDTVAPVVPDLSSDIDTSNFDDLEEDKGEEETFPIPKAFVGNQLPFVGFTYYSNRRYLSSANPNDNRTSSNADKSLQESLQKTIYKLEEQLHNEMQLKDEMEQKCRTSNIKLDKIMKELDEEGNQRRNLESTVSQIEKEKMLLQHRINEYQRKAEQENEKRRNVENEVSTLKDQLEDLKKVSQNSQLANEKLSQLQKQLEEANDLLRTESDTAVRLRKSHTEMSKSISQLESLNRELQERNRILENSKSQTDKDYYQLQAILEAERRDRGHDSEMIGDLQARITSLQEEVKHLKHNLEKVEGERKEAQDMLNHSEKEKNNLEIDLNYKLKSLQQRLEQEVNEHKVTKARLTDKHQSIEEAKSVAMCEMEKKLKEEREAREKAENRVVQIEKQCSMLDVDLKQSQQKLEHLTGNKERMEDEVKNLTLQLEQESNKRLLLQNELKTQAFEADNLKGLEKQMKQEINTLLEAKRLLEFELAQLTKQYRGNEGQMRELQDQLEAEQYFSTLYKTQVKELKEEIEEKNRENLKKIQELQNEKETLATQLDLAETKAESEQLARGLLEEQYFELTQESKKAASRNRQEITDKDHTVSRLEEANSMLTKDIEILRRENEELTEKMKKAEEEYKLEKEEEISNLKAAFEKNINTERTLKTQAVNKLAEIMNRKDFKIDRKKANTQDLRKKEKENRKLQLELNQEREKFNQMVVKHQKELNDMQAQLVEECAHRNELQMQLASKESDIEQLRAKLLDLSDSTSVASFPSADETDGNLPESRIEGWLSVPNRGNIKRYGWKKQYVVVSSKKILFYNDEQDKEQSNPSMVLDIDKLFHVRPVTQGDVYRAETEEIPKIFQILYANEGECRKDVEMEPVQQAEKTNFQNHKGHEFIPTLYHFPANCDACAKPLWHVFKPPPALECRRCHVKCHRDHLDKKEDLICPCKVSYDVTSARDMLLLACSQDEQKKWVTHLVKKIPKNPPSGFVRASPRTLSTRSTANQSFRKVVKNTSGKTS

CC(C)NC(=O)COc1cccc(-c2nc(Nc3ccc4[nH]ncc4c3)c3ccccc3n2)c1 [KD025]
expression of profibrotic mRNA (fibroblasts): decreased expression of several profibrotic mRNA including that of CTGF
expression of pro-inflammatory, fibrosis-linked cytokines; autoimmune disease [1]: decreased expression of pro-inflammatory, fibrosis-linked cytokines and mitigated murine autoimmune disease
hemodynamic or other side effects [2]: no hemodynamic or other side effects

CN1CCN(c2ccc3c(c2)CN(c2nccc(-c4nccc(C#Cc5ccc6[nH]ncc6c5)n4)n2)C3)CC1 [Ex. 40, 5-((2′-(5-(4-Methylpiperazin-1-yl)isoindolin-2-yl)-[2,4′-bipyrimidin]-4-yl)ethynyl)-1H-indazole]
Kd (ROCK1): 12 µM
ROCK 2 Selectivity (ROCK2; ROCK2 over ROCK1, from Kd values, N/C = not calculated): 144
Kd (ROCK2; equilibrium dissociation constant, 11-point 3-fold dilution series, read-out: Kd (μM) ROCK2): 0.083 µM
